Source: PubChem BioAssay (NCI)
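Test compounds were applied to cells in 96-well plates for 48 hours at 5 doses. GI50 marks 50% less growth. The concentration for full growth arrest is given as TGI.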 *1 amine or outer side, *2 acyl side, *3 side chain or, on linkers, in order; H or OH if unused. Where a SMILES comes first, the peptide text is derived from it. Bridges are numbered along the chain shown (N, C = ends). [ ]: non-standard residue; d: D form. Adda = CO[C@@H](Cc1ccccc1)[C@@H](C)/C=C(C)/C=C/[C@H](N[*:1])[C@H](C)C(=O)[*:2]; dAsp(3S-Me) = C[C@H](C(=O)[*:3])[C@@H](N[*:1])C(=O)[*:2]; d(γGlu) = O=C(O)[C@@H](CCC(=O)[*:2])N[*:1]; NMeDha = C=C(NC)C(=O)O

Columns and labels:
Assay in all cases: DTP human tumour cell line panel, 48 h
TK-10 renal = test system: TK-10 renal
ACHN renal = test system: ACHN renal
HCC-2998 colon = test system: HCC-2998 colon
NCI-H522 lung = test system: NCI-H522 lung
NCI-H226 lung = test system: NCI-H226 lung
RPMI-8226 leukemia = test system: RPMI-8226 leukemia
K-562 leukemia = test system: K-562 leukemia
HT29 colon = test system: HT29 colon
786-0 renal = test system: 786-0 renal
M14 melanoma = test system: M14 melanoma
SW-620 colon = test system: SW-620 colon
LOX IMVI melanoma = test system: LOX IMVI melanoma
MOLT-4 leukemia = test system: MOLT-4 leukemia
KM12 colon = test system: KM12 colon
UO-31 renal = test system: UO-31 renal
HCT-15 colon = test system: HCT-15 colon
RXF 393 renal = test system: RXF 393 renal
HOP-92 NSCLC = test system: HOP-92 NSCLC
OVCAR-5 ovarian = test system: OVCAR-5 ovarian
MDA-MB-231 breast = test system: MDA-MB-231 breast
MALME-3M melanoma = test system: MALME-3M melanoma
HS 578T breast = test system: HS 578T breast
HCT-116 colon = test system: HCT-116 colon
IGROV1 ovarian = test system: IGROV1 ovarian
EKVX NSCLC = test system: EKVX NSCLC
A549 NSCLC = test system: A549 NSCLC
DU-145 prostate = test system: DU-145 prostate
MDA-MB-435 = test system: MDA-MB-435
SK-MEL-5 melanoma = test system: SK-MEL-5 melanoma
SK-MEL-2 melanoma = test system: SK-MEL-2 melanoma
MCF7 breast = test system: MCF7 breast
UACC-257 melanoma = test system: UACC-257 melanoma
T-47D breast = test system: T-47D breast
SNB-19 CNS = test system: SNB-19 CNS
PC-3 prostate = test system: PC-3 prostate
OVCAR-8 ovarian = test system: OVCAR-8 ovarian
SK-OV-3 ovarian = test system: SK-OV-3 ovarian
NCI/ADR-RES ovarian = test system: NCI/ADR-RES ovarian
U251 CNS = test system: U251 CNS
SK-MEL-28 melanoma = test system: SK-MEL-28 melanoma
HL-60(TB) leukemia = test system: HL-60(TB) leukemia
CAKI-1 renal = test system: CAKI-1 renal
UACC-62 melanoma = test system: UACC-62 melanoma
BT-549 breast = test system: BT-549 breast
NCI-H460 lung = test system: NCI-H460 lung
SN12C renal = test system: SN12C renal
COLO 205 colon = test system: COLO 205 colon
SF-268 CNS = test system: SF-268 CNS
SNB-75 CNS = test system: SNB-75 CNS
HOP-62 NSCLC = test system: HOP-62 NSCLC
SR leukemia = test system: SR leukemia
CCRF-CEM leukemia = test system: CCRF-CEM leukemia
SF-295 CNS = test system: SF-295 CNS
OVCAR-4 ovarian = test system: OVCAR-4 ovarian
SF-539 CNS = test system: SF-539 CNS
NCI-H23 lung = test system: NCI-H23 lung
OVCAR-3 ovarian = test system: OVCAR-3 ovarian

With `N#C/C(=C\c1ccccc1)c1nc(-c2cc3ccccc3oc2=O)cs1` the TGI (TK-10 renal) was > 100 µM, the TGI (ACHN renal) was > 100 µM and the TGI (HCC-2998 colon) was > 100 µM. The TGI (NCI-H522 lung) was > 100 µM, the TGI (NCI-H226 lung) was > 100 µM and the TGI (RPMI-8226 leukemia) was > 100 µM. The TGI (K-562 leukemia) was > 100 µM, the TGI (HT29 colon) was > 100 µM and the TGI (786-0 renal) was > 100 µM. For the same compound, the TGI (M14 melanoma) was > 100 µM, the TGI (SW-620 colon) was > 100 µM and the TGI (LOX IMVI melanoma) was > 100 µM. The TGI (MOLT-4 leukemia) was > 100 µM, the TGI (KM12 colon) was > 100 µM and the TGI (UO-31 renal) was > 100 µM. The TGI (HCT-15 colon) was > 100 µM, the TGI (RXF 393 renal) was > 100 µM and the TGI (HOP-92 NSCLC) was > 100 µM. The TGI (OVCAR-5 ovarian) was > 100 µM, the TGI (MDA-MB-231 breast) was > 100 µM and the TGI (MALME-3M melanoma) was > 100 µM. The TGI (HS 578T breast) was 82.1 µM, the TGI (HCT-116 colon) was > 100 µM and the TGI (IGROV1 ovarian) was > 100 µM. For the same compound, the TGI (EKVX NSCLC) was > 100 µM, the TGI (A549 NSCLC) was > 100 µM and the TGI (DU-145 prostate) was > 100 µM. The TGI (MDA-MB-435) was > 100 µM, the TGI (SK-MEL-5 melanoma) was > 100 µM and the TGI (SK-MEL-2 melanoma) was > 100 µM. For the same compound, the TGI (MCF7 breast) was > 100 µM, the TGI (UACC-257 melanoma) was > 100 µM and the TGI (T-47D breast) was > 100 µM. The TGI (SNB-19 CNS) was > 100 µM, the TGI (PC-3 prostate) was > 100 µM and the TGI (OVCAR-8 ovarian) was > 100 µM. The TGI (SK-OV-3 ovarian) was > 100 µM, the TGI (NCI/ADR-RES ovarian) was > 100 µM and the TGI (U251 CNS) was > 100 µM. The TGI (SK-MEL-28 melanoma) was > 100 µM, the TGI (HL-60(TB) leukemia) was > 100 µM and the TGI (CAKI-1 renal) was > 100 µM. For the same compound, the TGI (UACC-62 melanoma) was > 100 µM, the TGI (BT-549 breast) was 77.1 µM and the TGI (NCI-H460 lung) was > 100 µM. For the same compound, the TGI (SN12C renal) was > 100 µM, the TGI (COLO 205 colon) was > 100 µM and the TGI (SF-268 CNS) was > 100 µM. For the same compound, the TGI (SNB-75 CNS) was > 100 µM, the TGI (HOP-62 NSCLC) was > 100 µM and the TGI (SR leukemia) was > 100 µM. For the same compound, the TGI (CCRF-CEM leukemia) was > 100 µM, the TGI (SF-295 CNS) was > 100 µM and the TGI (OVCAR-4 ovarian) was > 100 µM. The TGI (SF-539 CNS) was > 100 µM.
For `C=C1C(=O)N[C@H](C)C(=O)N[C@@H](CC(C)C)C(=O)N[C@@H](C(=O)O)[C@H](C)C(=O)N[C@@H](CCCN=C(N)N)C(=O)N[C@@H](/C=C/C(C)=C/[C@H](C)[C@H](Cc2ccccc2)OC)[C@H](C)C(=O)N[C@@H](C(=O)O)CCC(=O)N1C` (R[Adda][d(γGlu)][NMeDha][dA]L[dAsp(3S-Me)]-OH; lactam N-7), the GI50 (TK-10 renal) was > 5 µM, the TGI (TK-10 renal) was > 5 µM and the GI50 (HCC-2998 colon) was > 5 µM. The TGI (HCC-2998 colon) was > 5 µM, the GI50 (NCI-H522 lung) was 4.94 µM and the TGI (NCI-H522 lung) was > 5 µM. For the same compound, the GI50 (NCI-H226 lung) was > 5 µM, the TGI (NCI-H226 lung) was > 5 µM and the GI50 (RPMI-8226 leukemia) was > 5 µM. The TGI (RPMI-8226 leukemia) was > 5 µM, the GI50 (K-562 leukemia) was > 5 µM and the TGI (K-562 leukemia) was > 5 µM. For the same compound, the GI50 (HT29 colon) was > 5 µM, the TGI (HT29 colon) was > 5 µM and the GI50 (786-0 renal) was > 5 µM. For the same compound, the TGI (786-0 renal) was > 5 µM, the GI50 (NCI-H23 lung) was > 5 µM and the TGI (NCI-H23 lung) was > 5 µM. The GI50 (M14 melanoma) was > 5 µM, the TGI (M14 melanoma) was > 5 µM and the GI50 (SW-620 colon) was > 5 µM. The TGI (SW-620 colon) was > 5 µM, the GI50 (LOX IMVI melanoma) was > 5 µM and the TGI (LOX IMVI melanoma) was > 5 µM. The GI50 (MOLT-4 leukemia) was > 5 µM, the TGI (MOLT-4 leukemia) was > 5 µM and the GI50 (KM12 colon) was > 5 µM. For the same compound, the TGI (KM12 colon) was > 5 µM, the GI50 (UO-31 renal) was > 5 µM and the TGI (UO-31 renal) was > 5 µM. For the same compound, the GI50 (HCT-15 colon) was > 5 µM, the TGI (HCT-15 colon) was > 5 µM and the GI50 (RXF 393 renal) was > 5 µM. The TGI (RXF 393 renal) was > 5 µM, the GI50 (HOP-92 NSCLC) was > 5 µM and the TGI (HOP-92 NSCLC) was > 5 µM. For the same compound, the GI50 (OVCAR-5 ovarian) was > 5 µM, the TGI (OVCAR-5 ovarian) was > 5 µM and the GI50 (MDA-MB-231 breast) was > 5 µM. The TGI (MDA-MB-231 breast) was > 5 µM, the GI50 (HS 578T breast) was > 5 µM and the TGI (HS 578T breast) was > 5 µM. The GI50 (HCT-116 colon) was > 5 µM, the TGI (HCT-116 colon) was > 5 µM and the GI50 (IGROV1 ovarian) was 305 nM. For the same compound, the TGI (IGROV1 ovarian) was > 5 µM, the GI50 (EKVX NSCLC) was > 5 µM and the TGI (EKVX NSCLC) was > 5 µM. For the same compound, the GI50 (A549 NSCLC) was 4.68 µM, the TGI (A549 NSCLC) was > 5 µM and the GI50 (DU-145 prostate) was > 5 µM. The TGI (DU-145 prostate) was > 5 µM, the GI50 (MDA-MB-435) was > 5 µM and the TGI (MDA-MB-435) was > 5 µM. The GI50 (SK-MEL-5 melanoma) was > 5 µM, the TGI (SK-MEL-5 melanoma) was > 5 µM and the GI50 (SK-MEL-2 melanoma) was > 5 µM. For the same compound, the TGI (SK-MEL-2 melanoma) was > 5 µM, the GI50 (MCF7 breast) was > 5 µM and the TGI (MCF7 breast) was > 5 µM. For the same compound, the GI50 (UACC-257 melanoma) was > 5 µM, the TGI (UACC-257 melanoma) was > 5 µM and the GI50 (T-47D breast) was > 5 µM. The TGI (T-47D breast) was > 5 µM, the GI50 (SNB-19 CNS) was > 5 µM and the TGI (SNB-19 CNS) was > 5 µM. The GI50 (PC-3 prostate) was > 5 µM, the TGI (PC-3 prostate) was > 5 µM and the GI50 (OVCAR-8 ovarian) was > 5 µM. The TGI (OVCAR-8 ovarian) was > 5 µM, the GI50 (SK-OV-3 ovarian) was > 5 µM and the TGI (SK-OV-3 ovarian) was > 5 µM. For the same compound, the GI50 (NCI/ADR-RES ovarian) was > 5 µM, the TGI (NCI/ADR-RES ovarian) was > 5 µM and the GI50 (SK-MEL-28 melanoma) was > 5 µM. For the same compound, the TGI (SK-MEL-28 melanoma) was > 5 µM, the GI50 (HL-60(TB) leukemia) was > 5 µM and the TGI (HL-60(TB) leukemia) was > 5 µM. For the same compound, the GI50 (CAKI-1 renal) was > 5 µM, the TGI (CAKI-1 renal) was > 5 µM and the GI50 (UACC-62 melanoma) was > 5 µM. The TGI (UACC-62 melanoma) was > 5 µM, the GI50 (BT-549 breast) was > 5 µM and the TGI (BT-549 breast) was > 5 µM. For the same compound, the GI50 (NCI-H460 lung) was > 5 µM, the TGI (NCI-H460 lung) was > 5 µM and the GI50 (SN12C renal) was > 5 µM. The TGI (SN12C renal) was > 5 µM, the GI50 (COLO 205 colon) was > 5 µM and the TGI (COLO 205 colon) was > 5 µM. The GI50 (SF-268 CNS) was > 5 µM, the TGI (SF-268 CNS) was > 5 µM and the GI50 (OVCAR-3 ovarian) was > 5 µM. The TGI (OVCAR-3 ovarian) was > 5 µM, the GI50 (SNB-75 CNS) was > 5 µM and the TGI (SNB-75 CNS) was > 5 µM. The GI50 (HOP-62 NSCLC) was > 5 µM, the TGI (HOP-62 NSCLC) was > 5 µM and the GI50 (SR leukemia) was 1190 nM. The TGI (SR leukemia) was > 5 µM, the GI50 (SF-295 CNS) was > 5 µM and the TGI (SF-295 CNS) was > 5 µM. For the same compound, the GI50 (OVCAR-4 ovarian) was > 5 µM, the TGI (OVCAR-4 ovarian) was > 5 µM and the GI50 (SF-539 CNS) was > 5 µM. The TGI (SF-539 CNS) was > 5 µM.
